{"source": "paper PMC5808360", "about": "“Neutral Porphyrin Derivative Exerts Anticancer Activity by Targeting Cellular Topoisomerase I (Top1) and Promotes Apoptotic Cell Death without Stabilizing Top1-DNA Cleavage Complexes” (Journal of Medicinal Chemistry, 2017)", "key": {"[1]": {"target": "T1, Top1-DNA cleavage complexes (Top1cc) (Homo sapiens, UniProt P11387)", "T1 construct": "made in house; host or cells: Sf-9 insect cells (recombinant baculovirus, gift of Prof. James J. Champoux)", "T1 sequence (P11387 1-765)": "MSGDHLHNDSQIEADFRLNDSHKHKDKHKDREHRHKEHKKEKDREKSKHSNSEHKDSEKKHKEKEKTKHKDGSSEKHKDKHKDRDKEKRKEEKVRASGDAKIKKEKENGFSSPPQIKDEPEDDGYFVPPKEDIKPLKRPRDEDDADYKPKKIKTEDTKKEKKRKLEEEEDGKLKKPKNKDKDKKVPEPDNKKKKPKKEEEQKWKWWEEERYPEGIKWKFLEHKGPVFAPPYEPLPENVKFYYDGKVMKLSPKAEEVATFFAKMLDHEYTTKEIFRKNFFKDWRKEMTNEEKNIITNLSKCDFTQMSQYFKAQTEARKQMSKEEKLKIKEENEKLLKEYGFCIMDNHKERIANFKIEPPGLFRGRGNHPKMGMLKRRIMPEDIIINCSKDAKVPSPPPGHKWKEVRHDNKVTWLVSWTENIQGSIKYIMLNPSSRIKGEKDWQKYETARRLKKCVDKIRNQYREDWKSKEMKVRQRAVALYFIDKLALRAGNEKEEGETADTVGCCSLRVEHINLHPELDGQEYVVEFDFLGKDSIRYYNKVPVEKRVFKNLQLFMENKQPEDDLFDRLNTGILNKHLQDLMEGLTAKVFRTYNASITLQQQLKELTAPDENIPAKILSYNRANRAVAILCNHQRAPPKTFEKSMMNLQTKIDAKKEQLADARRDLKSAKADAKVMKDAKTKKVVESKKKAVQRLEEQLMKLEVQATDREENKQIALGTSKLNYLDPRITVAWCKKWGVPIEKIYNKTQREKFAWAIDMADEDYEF", "assay": "Plasmid DNA cleavage assay (Top1cc formation)", "format": "biochemical", "description": "Because camptothecin (CPT) stabilizes Top1-DNA cleavable complexes (Top1cc) to inhibit Top1 activity,[3],[5],[37] we investigated compound 8 induced Top1cc formation with the plasmid DNA cleavage assays.[6],[8],[36],[37] Top1 mediated conversion of closed circular DNA (form I) to nicked circular DNA (form II) in the presence of specific inhibitors is referred to as “cleavable complex”. […] To further investigate the impact of compound 8 on preformed Top1cc, we preincubated Top1 with plasmid DNA and CPT (Figure 2B) before the addition of compound 8 in the cleavage assays.\n(§1) Plasmid DNA cleavage assay was carried out as described previously.[6],[8] For equilibrium cleavage assays, 25-mer duplex of oligonucleotide containing a Top1 binding motif was labeled and annealed as described previously.[13],[36],[38] Samples were analyzed by 12% sequencing gel electrophoresis, dried, and exposed on PhosphorImager screens and imaged with Typhoon FLA 7000 (GE Healthcare, U.K.)."}, "[2]": {"target": "T1, Top1-DNA cleavage complexes (Top1cc)", "assay": "Single turnover equilibrium cleavage assay with 25-mer duplex oligonucleotide", "format": "biochemical", "description": "as §1"}, "[3]": {"system": "mouse embryonic fibroblasts (MEFs)", "assay": "Cell survival (MTT) assay, MEFs (TDP1+/+ and TDP1-/-)", "format": "cell-based", "from_the_text": "(§2) Compound 8 was investigated for its cytotoxicity in the cancer cell lines from different tissue origin,[6],[41] as well as in the noncancerous human embryonic kidney cell lines (HEK293) and mouse embryonic fibroblasts (MEFs). […] The MCF7 breast cancer cell lines were most susceptible to compound 8.\n(§3) Human cancerous cell lines like MCF7, HeLa, HCT116, NIH:OVCAR-3, and HEK293 were obtained from the Developmental Therapeutics Program as kind gift from Dr. Yves Pommier (NIH/NCI/USA). TDP1^+/+ and TDP1^–/– primary MEF cells were kind gift from Dr. Cornelius F. Boerkoel (University of British Columbia, Canada) and were cultured as described previously.[6],[36],[40],[42] Plasmid DNAs were transfected with Lipofectamine 2000 (Invitrogen) according to the manufacturer’s protocol.\n(§4) Cell survival was assessed by 3-(4,5-dimethylthiazol-2-yl)-2,5-diphenyltetrazolium bromide (MTT) assay as discussed previously.[6] The percent inhibition of viability for each concentration of the compounds was calculated with respect to the control, and IC50 values were estimated."}, "[4]": {"assay": "Cell survival (MTT) assay, MEFs (TDP1+/+ and TDP1-/-)", "format": "cell-based, mouse", "conditions": "mouse, read-out: IC50 cytotoxicity", "from_the_text": "as §2, §3, §4"}, "recombinant Top1": {"target": "T2, recombinant Top1 (Homo sapiens, UniProt P11387)", "T2 construct": "made in house; host or cells: Sf-9 insect cells (recombinant baculovirus, gift of Prof. James J. Champoux)", "T2 sequence (P11387 1-765)": "T1 sequence (P11387 1-765)", "assay": "Dilution assay with recombinant Top1 (reversibility of inhibition)", "format": "biochemical", "from_the_text": "To further investigate the nature of binding of compound 8 with Top1 (reversible vs irreversible),[12],[14] we performed dilution assay with recombinant Top1."}, "[5]": {"system": "MCF7 cells transfected with Top1 or Ctr siRNA", "assay": "Cell survival (MTT) assay in MCF7 cells transfected with Top1 or control siRNA", "format": "cell-based, human", "description": "To further confirm that Top1 is the cellular target for compound 8 mediated cytotoxicity, we have performed cytotoxicity assays in siRNA mediated Top1 knockdown cells (Figure 6G, inset).\nas §4\nTransfections were performed as described previously.[40] In brief, cells (1.5 × 10^5) were transfected with control siRNA or 40 nM Top1 siRNA (Qiagen) using oligofectamine (Invitrogen) according to the manufacturer’s protocol."}, "[6]": {"assay": "Cell survival (MTT) assay, HEK293", "format": "cell-based", "conditions": "human, HEK293 cells (noncancerous embryonic kidney), read-out: IC50 cytotoxicity", "description": "as §2, §4"}, "[7]": {"system": "human breast adenocarcinoma cell lines (MCF7)", "assay": "Cell survival (MTT) assay, MCF7", "format": "cell-based", "conditions": "MCF7, CPT 5 μM 12 h prior to addition of compound 8", "description": "as §2, §4"}}}
{"smiles": "CN(C)c1ccc(-c2c3nc(c(-c4ccc(N(C)C)cc4)c4ccc([nH]4)c(-c4ccc(C(=O)O)cc4)c4nc(c(-c5ccc(C(=O)O)cc5)c5ccc2[nH]5)C=C4)C=C3)cc1", "note": "[Compound 8, 5,10-Bis(4-carboxyphenyl)-15,20-bis(4-dimethylaminophenyl)porphyrin]", "values": [{"measurement": "Effect on CPT-induced preformed Top1cc in plasmid DNA cleavage assay", "setting": "[1]; Top1 preincubated with plasmid DNA and CPT before addition of compound, dose dependent", "result": "completely abrogated CPT-induced Top1cc"}, {"measurement": "Stabilization of Top1cc in plasmid DNA cleavage assay", "setting": "[1]; recombinant human Top1 100 fmol, pBS (SK+) DNA, 37 °C, 30 min", "result": "failed to stabilize Top1cc"}, {"measurement": "Stabilization of Top1cc in single turnover equilibrium cleavage assay", "setting": "[2]; 25-mer duplex oligonucleotide, recombinant Top1 0.2 μM", "result": "failed to stabilize Top1cc"}, {"measurement": "Effect on CPT-induced Top1cc with 12-mer cleaved oligonucleotides", "setting": "[2]; Top1 incubated with CPT before addition of compound", "result": "reversed the CPT-induced Top1cc"}, {"measurement": "Sensitivity of TDP–/– versus TDP1+/+ MEFs cells", "setting": "[3]", "result": "equally sensitive"}, {"measurement": "IC50", "setting": "[4]; TDP1+/+ primary mouse embryonic fibroblasts (MEFs), TDP1+/+ MEFs", "result": "> 10", "unit": "µM"}, {"measurement": "IC50", "setting": "[4]; TDP1-/- primary mouse embryonic fibroblasts (MEFs), TDP1-/- MEFs", "result": "> 10", "unit": "µM"}, {"measurement": "IC50", "setting": "[4]; mouse embryonic fibroblasts (MEFs), MEFs, noncancerous", "result": "> 10", "unit": "µM"}, {"measurement": "inhibition at 1 µM", "setting": "recombinant Top1; Top1 preincubated with 1 μM compound, read-out: Inhibition of enzyme before dilution", "result": "90 to 99", "unit": "%"}, {"measurement": "Relief of Top1 inhibition upon dilution", "setting": "recombinant Top1; at 40-fold dilution (final 0.025 μM)", "result": "Complete relief of Top1 inhibition"}, {"measurement": "Cytotoxicity in Top1 knockdown cells compared to Top1 proficient cells", "setting": "[5]", "result": "reduced cytotoxicity"}, {"measurement": "IC50", "setting": "[6]", "result": "> 10", "unit": "µM"}, {"measurement": "Cytotoxicity of CPT pretreatment followed by compound 8", "setting": "[7]", "result": "not additive in cytotoxicity"}]}
